Measured values published in paper PMC7456477, “Pharmacokinetic Study of Thirteen Ingredients after the Oral Administration of Flos Chrysanthemi Extract in Rats by UPLC-MS/MS” (BioMed Research International, 2020).

Assays:
[1] = Stability of analytes in rat plasma (QC samples under four storage conditions); assay type: in vitro ADME; settings: n = 6
Experimental: To study the stability of all compounds in rat plasma, low, medium, and high concentrations of QC samples were tested under the following test conditions: stored at an autosampler for 12 hours, stored at room temperature for 6 hours, put through three freeze/thaw cycles, and stored at -80°C for 14 days. Three QC concentrations were tested for each of the above conditions.
The stability of all 13 analytes during sample collection and processing was evaluated with the various storage conditions being tested on spiked plasma samples at three QC concentrations.

[2] = Pharmacokinetic study in rat plasma after oral administration of Flos Chrysanthemi extract (UPLC-MS/MS); assay type: in vivo, Sprague-Dawley rats; settings: rats, oral Flos Chrysanthemi extract 10 g/kg; for Detection in plasma over the sampling time: result in words; for AUC(0-inf) / Cmax / Tmax / half-life / AUC / k el: male, Sprague-Dawley, rat; for AUC: read-out: AUC(0 − tn); for k el: read-out: Ke (converted)
Experimental: Six male Sprague-Dawley rats (250 ± 5 g) were purchased from Huafukang Bioscience Co., Inc. (Beijing, China). The rats were adapted to the facility for a week. Before the experiments, rats were fasted for 12 h, although drinking water was readily accessible. Flos Chrysanthemi extract was dissolved in CMC-Na aqueous solution and orally administered to the animals once at 10 g/kg. Blood samples (220 μL) were taken from the orbital venous plexus of rats at 0, 0.03, 0.08, 0.17, 0.25, 0.5, 1, 2, 4, 6, 8, 10, 12, and 24 h after extract administration. Blood samples were promptly centrifuged at 6000 rpm for 10 min, and plasma samples were collected. The obtained plasma was stored at -80°C until analysis. “Drug and Statistics 3.0” software (Medical College of Wannan, China) was used to calculate pharmacokinetic parameters. The animal protocol was approved by the Animal Ethics Committee of Tianjin University of Traditional Chinese Medicine (TCM-LAEC20190056).
Plasma samples from rats orally administered with Flos Chrysanthemi extract (10.0 g/kg) were analysed with UPLC-MS/MS. Plasma concentration-time curves are shown in Figure 3, and the primary pharmacokinetic parameters of each analyte are summarized in Table 6.

[3] = spiked concentration 1000 ng/mL
[4] = spiked concentration 4000 ng/mL

Row | Structure (SMILES) | Measured concentration, -80°C for 14 days ([1]; spiked concentration 5 ng/mL) | Measured concentration, Autosampler for 12 h ([1]; spiked concentration 5 ng/mL) | Measured concentration, Room temperature for 6 h ([1]; spiked concentration 5 ng/mL) | Measured concentration, Three freeze-thaw cycles ([1]; spiked concentration 5 ng/mL) | Measured concentration, -80°C for 14 days ([1]; spiked concentration 50 ng/mL) | Measured concentration, Autosampler for 12 h ([1]; spiked concentration 50 ng/mL) | Measured concentration, Room temperature for 6 h ([1]; spiked concentration 50 ng/mL) | Measured concentration, Three freeze-thaw cycles ([1]; spiked concentration 50 ng/mL) | Measured concentration, -80°C for 14 days [1, 3] | Measured concentration, Autosampler for 12 h [1, 3] | Measured concentration, Room temperature for 6 h [1, 3] | Measured concentration, Three freeze-thaw cycles [1, 3] | Detection in plasma over the sampling time [2] | AUC(0-inf) ([2]; plasma, n = 6) | Cmax ([2]; plasma, n = 6) | Tmax ([2]; plasma, n = 6) | half-life ([2]; plasma, n = 6) | AUC ([2]; plasma, n = 6) | k el ([2]; plasma, n = 6) | other results
1 | COc1ccc(-c2cc(=O)c3c(O)cc(O)cc3o2)cc1 [Acacetin] | 4.5 ± 0.1 ng/mL | 5.3 ± 0.1 ng/mL | 4.6 ± 0.1 ng/mL | 5.8 ± 0.1 ng/mL | 50.5 ± 0.7 ng/mL | 47.8 ± 0.7 ng/mL | 50.3 ± 0.8 ng/mL | 50.2 ± 5.7 ng/mL | 977.4 ± 57.9 ng/mL | 1030.3 ± 4.9 ng/mL | 1126.2 ± 9.5 ng/mL | 1032.7 ± 5.6 ng/mL | detected only at the first few blood sampling points |  |  |  |  |  |  | 
2 | O=c1cc(-c2ccc(O)cc2)oc2cc(O[C@@H]3O[C@H](CO)[C@@H](O)[C@H](O)[C@H]3O)cc(O)c12 [Apigenin 7-glucoside] | 5.1 ± 0.2 ng/mL | 4.3 ± 0.1 ng/mL | 5.9 ± 0.1 ng/mL | 5.6 ± 0.4 ng/mL | 51.1 ± 0.4 ng/mL | 44.5 ± 0.7 ng/mL | 50.5 ± 1.0 ng/mL | 53.7 ± 0.6 ng/mL | 1108.3 ± 25.6 ng/mL | 1077.6 ± 9.6 ng/mL | 1086.7 ± 12.9 ng/mL | 1112.8 ± 7.2 ng/mL |  | 1470 ± 614 ng·h/mL | 96.4 ± 24.8 ng/mL | 41.4 ± 29.4 min | 832 ± 609 min | 1320 ± 489 ng·h/mL | 6.94e-05 s⁻¹ | 
3 | O=c1cc(-c2ccc(O)cc2)oc2cc(O)cc(O)c12 [Apigenin] | 5.2 ± 0.1 ng/mL | 5.4 ± 0.2 ng/mL | 4.9 ± 0.1 ng/mL | 5.7 ± 0.1 ng/mL | 49.3 ± 1.9 ng/mL | 45.8 ± 1.3 ng/mL | 49.3 ± 1.1 ng/mL | 50.5 ± 0.4 ng/mL | 1063.8 ± 62.8 ng/mL | 987.0 ± 11.4 ng/mL | 1112.4 ± 11.7 ng/mL | 1086.4 ± 17.6 ng/mL |  | 3090 ± 447 ng·h/mL | 302 ± 87.1 ng/mL | 30 min | 667 ± 426 min | 2900 ± 251 ng·h/mL | 2.5e-05 s⁻¹ | 
4 | O=C(/C=C/c1ccc(O)c(O)c1)O[C@@H]1C[C@](O)(C(=O)O)C[C@@H](O)[C@H]1O [Chlorogenic acid] | 5.2 ± 0.1 ng/mL | 5.1 ± 0.1 ng/mL | 5.8 ± 0.1 ng/mL | 5.8 ± 0.1 ng/mL | 44.4 ± 0.3 ng/mL | 43.5 ± 0.7 ng/mL | 49.7 ± 2.3 ng/mL | 54.7 ± 0.4 ng/mL | 1117.1 ± 2.0 ng/mL | 1084.8 ± 13.6 ng/mL | 1079.2 ± 8.3 ng/mL | 1123.5 ± 7.3 ng/mL |  | 494 ± 205 ng·h/mL | 194 ± 56.4 ng/mL |  | 12 ± 10.2 min | 426 ± 139 ng·h/mL | 0.00112 s⁻¹ | T max ([2]; plasma, n = 6): 15 ± 0 min
5 | O=C(/C=C/c1ccc(O)c(O)c1)O[C@H]1[C@H](O)C[C@](O)(C(=O)O)C[C@H]1O [Cryptochlorogenic acid] | 5.2 ± 0.2 ng/mL | 5.0 ± 0.2 ng/mL | 5.3 ± 0.1 ng/mL | 5.9 ± 0.1 ng/mL | 46.7 ± 1.4 ng/mL | 44.5 ± 1.3 ng/mL | 49.1 ± 1.5 ng/mL | 54.1 ± 0.3 ng/mL | 1075.7 ± 52.9 ng/mL | 1069.3 ± 16.2 ng/mL | 1012.9 ± 11.1 ng/mL | 1122.8 ± 6.8 ng/mL |  | 431 ± 197 ng·h/mL | 89.4 ± 45.3 ng/mL | 36.6 ± 19.8 min | 414 ± 204 min | 319 ± 97.3 ng·h/mL | 3.33e-05 s⁻¹ | 
6 | O=c1cc(-c2ccc(O)c(O)c2)oc2cc(O[C@@H]3O[C@H](CO)[C@@H](O)[C@H](O)[C@H]3O)cc(O)c12 [Cynaroside] |  |  |  |  |  |  |  |  |  |  |  |  |  | 19100 ± 20000 ng·h/mL | 2550 ± 1120 ng/mL | 383 ± 228 min | 301 ± 266 min | 19100 ± 19900 ng·h/mL | 7.78e-05 s⁻¹ | Measured concentration, -80°C for 14 days ([1]; spiked concentration 20 ng/mL): 21.1 ± 0.8 ng/mL; Measured concentration, Autosampler for 12 h ([1]; spiked concentration 20 ng/mL): 20.0 ± 0.2 ng/mL; Measured concentration, Room temperature for 6 h ([1]; spiked concentration 20 ng/mL): 20.6 ± 0.9 ng/mL; Measured concentration, Three freeze-thaw cycles ([1]; spiked concentration 20 ng/mL): 22.6 ± 1.0 ng/mL; Measured concentration, -80°C for 14 days ([1]; spiked concentration 200 ng/mL): 205.0 ± 4.0 ng/mL; Measured concentration, Autosampler for 12 h ([1]; spiked concentration 200 ng/mL): 203.4 ± 6.1 ng/mL; Measured concentration, Room temperature for 6 h ([1]; spiked concentration 200 ng/mL): 182.4 ± 0.6 ng/mL; Measured concentration, Three freeze-thaw cycles ([1]; spiked concentration 200 ng/mL): 219.8 ± 1.0 ng/mL; Measured concentration, -80°C for 14 days [1, 4]: 4060.3 ± 121.9 ng/mL; Measured concentration, Autosampler for 12 h [1, 4]: 4158.6 ± 15.3 ng/mL; Measured concentration, Room temperature for 6 h [1, 4]: 4360.1 ± 32.4 ng/mL; Measured concentration, Three freeze-thaw cycles [1, 4]: 4152.9 ± 34.1 ng/mL
7 | COc1ccc([C@@H]2CC(=O)c3c(O)cc(O[C@@H]4O[C@H](CO[C@@H]5O[C@@H](C)[C@H](O)[C@@H](O)[C@H]5O)[C@@H](O)[C@H](O)[C@H]4O)cc3O2)cc1O [Hesperidin] |  |  |  |  |  |  |  |  |  |  |  |  | detected only at the first few blood sampling points |  |  |  |  |  |  | Measured concentration, -80°C for 14 days ([1]; spiked concentration 1 ng/mL): 1.1 ± 0.1 ng/mL; Measured concentration, Autosampler for 12 h ([1]; spiked concentration 1 ng/mL): 1.0 ± 0.1 ng/mL; Measured concentration, Room temperature for 6 h ([1]; spiked concentration 1 ng/mL): 1.1 ± 0.1 ng/mL; Measured concentration, Three freeze-thaw cycles ([1]; spiked concentration 1 ng/mL): 1.1 ± 0.1 ng/mL; Measured concentration, -80°C for 14 days ([1]; spiked concentration 10 ng/mL): 9.5 ± 0.2 ng/mL; Measured concentration, Autosampler for 12 h ([1]; spiked concentration 10 ng/mL): 8.8 ± 0.1 ng/mL; Measured concentration, Room temperature for 6 h ([1]; spiked concentration 10 ng/mL): 10.2 ± 0.4 ng/mL; Measured concentration, Three freeze-thaw cycles ([1]; spiked concentration 10 ng/mL): 10.0 ± 0.1 ng/mL; Measured concentration, -80°C for 14 days ([1]; spiked concentration 200 ng/mL): 209.5 ± 2.3 ng/mL; Measured concentration, Autosampler for 12 h ([1]; spiked concentration 200 ng/mL): 222.7 ± 2.0 ng/mL; Measured concentration, Room temperature for 6 h ([1]; spiked concentration 200 ng/mL): 213.7 ± 2.1 ng/mL; Measured concentration, Three freeze-thaw cycles ([1]; spiked concentration 200 ng/mL): 218.3 ± 0.7 ng/mL
8 | O=c1c(O[C@@H]2O[C@H](CO)[C@H](O)[C@H](O)[C@H]2O)c(-c2ccc(O)c(O)c2)oc2cc(O)cc(O)c12 [Hyperoside] | 4.8 ± 0.2 ng/mL | 3.9 ± 0.1 ng/mL | 4.4 ± 0.1 ng/mL | 5.7 ± 0.1 ng/mL | 50.3 ± 1.8 ng/mL | 41.8 ± 1.4 ng/mL | 48.7 ± 1.9 ng/mL | 54.5 ± 2.1 ng/mL | 997.8 ± 19.4 ng/mL | 803.4 ± 2.5 ng/mL |  | 1110.2 ± 4.5 ng/mL | detected only at the first few blood sampling points |  |  |  |  |  |  | 
9 | O=C(/C=C/c1ccc(O)c(O)c1)O[C@@H]1[C@H](O)C[C@@](O)(C(=O)O)C[C@H]1OC(=O)/C=C/c1ccc(O)c(O)c1 [Isochlorogenic acid C] | 5.6 ± 0.1 ng/mL | 4.6 ± 0.4 ng/mL | 5.2 ± 0.2 ng/mL | 5.9 ± 0.1 ng/mL | 43.3 ± 0.3 ng/mL | 45.1 ± 0.6 ng/mL | 48.1 ± 0.8 ng/mL | 55.3 ± 0.4 ng/mL | 1080.3 ± 37.8 ng/mL | 1047.3 ± 12.4 ng/mL | 1049.2 ± 32.0 ng/mL | 1052.4 ± 38.4 ng/mL |  | 405 ± 228 ng·h/mL | 101 ± 73.3 ng/mL | 24 ± 18.6 min | 14.4 ± 13.2 min | 309 ± 149 ng·h/mL | 0.0013 s⁻¹ | 
